Assay results taken from patent US20150126534A1, “ENZYME AND RECEPTOR MODULATION” (Chroma Therapeutics Ltd, priority 2005, published 2015).
Values belong to the compound of their own block, whether it stands above or below them.

Legend:
PI 3-kinase γ = target: T1, PI 3-kinase γ (Homo sapiens, UniProt P48736); experiment: PI 3-kinase γ inhibition assay (HTRF); type: biochemical; settings: 100 μM MgATP; read-out: Enzyme inhibition IC50 nM (PI3-Kinase)
T1 construct: recombinant N-terminally His6-tagged, full length human enzyme; His6 (N); purchased Upstate (Dundee, UK), assay run by the vendor; host or cells: baculovirus / Sf21 insect cells
T1 sequence (P48736 whole entry): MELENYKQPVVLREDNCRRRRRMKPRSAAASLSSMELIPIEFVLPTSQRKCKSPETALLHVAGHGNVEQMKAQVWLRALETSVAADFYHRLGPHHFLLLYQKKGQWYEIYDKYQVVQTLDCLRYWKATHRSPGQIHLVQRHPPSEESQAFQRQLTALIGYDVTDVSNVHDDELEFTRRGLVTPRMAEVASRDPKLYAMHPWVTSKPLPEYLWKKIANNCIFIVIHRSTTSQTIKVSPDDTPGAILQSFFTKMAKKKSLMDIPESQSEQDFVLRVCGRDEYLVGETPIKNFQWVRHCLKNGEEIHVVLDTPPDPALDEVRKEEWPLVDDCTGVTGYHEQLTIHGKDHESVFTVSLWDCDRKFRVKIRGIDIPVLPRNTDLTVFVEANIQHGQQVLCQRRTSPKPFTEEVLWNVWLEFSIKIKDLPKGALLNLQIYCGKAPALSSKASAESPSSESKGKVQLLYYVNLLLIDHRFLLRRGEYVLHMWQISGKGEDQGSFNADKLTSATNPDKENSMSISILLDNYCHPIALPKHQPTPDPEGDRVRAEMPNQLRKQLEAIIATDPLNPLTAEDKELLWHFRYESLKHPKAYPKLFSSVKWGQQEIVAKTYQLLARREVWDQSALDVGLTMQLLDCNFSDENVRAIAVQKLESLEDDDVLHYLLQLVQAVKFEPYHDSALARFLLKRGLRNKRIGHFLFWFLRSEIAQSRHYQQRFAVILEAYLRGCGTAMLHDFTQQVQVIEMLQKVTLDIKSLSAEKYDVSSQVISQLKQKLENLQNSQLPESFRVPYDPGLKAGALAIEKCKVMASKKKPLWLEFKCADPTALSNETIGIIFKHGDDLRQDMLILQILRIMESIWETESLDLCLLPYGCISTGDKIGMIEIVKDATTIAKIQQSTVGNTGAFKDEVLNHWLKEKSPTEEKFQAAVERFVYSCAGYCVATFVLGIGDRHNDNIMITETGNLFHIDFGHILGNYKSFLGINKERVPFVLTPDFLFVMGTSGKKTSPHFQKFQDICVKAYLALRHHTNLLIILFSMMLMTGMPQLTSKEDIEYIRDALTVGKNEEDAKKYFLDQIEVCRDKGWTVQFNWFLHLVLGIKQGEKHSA
Description: The measurement of PI 3-kinase γ activity is dependent upon the specific and high affinity binding of the GRP1 pleckstrin homology (PH) domain to PIP3, the product of PI 3-kinase activity. A complex is formed between europium-labelled anti-GST monoclonal antibody, a GST-tagged GRP1 PH domain, biotinylated PIP3 and streptavidin-allophycocyanin (APC). This complex generates a stable time-resolved fluorescence resonance energy transfer (FRET) signal, which is diminished by competition of PIP3, generated in the PI 3-kinase assay, with the biotinylated PIPS.
The reaction was initiated by the addition of the MgATP mix. After incubation for 30 minutes at room temperature, the reaction was stopped by the addition of 5 μl of stop solution containing EDTA and biotinylated phosphatidylinositol-3,4,5-trisphosphate. Finally, 5 μl of detection buffer was added, which contained europium-labelled anti-GST monoclonal antibody, GST-tagged GRP1 PH domain and streptavidin-APC. The plate was then read in time-resolved fluorescence mode and the homogenous time-resolved fluorescence (HTRF) signal was determined according to the formula HTRF=10000×(Em665 nm/Em620 nm).
Duplicate data points were generated from a ½ log dilution series of a stock solution of compound in DMSO. Nine dilutions steps were made from a top final concentration of 10 μM, and a ‘no compound’ blank was included. HTRF ratio data were transformed into % activity of controls and analysed with a four parameter sigmoidal dose-response (variable slope) application. The concentration giving 50% inhibition (1050) was determined.

[1] = system: TNFα production in human whole blood; experiment: LPS-stimulation of human whole blood, TNF-α ELISA; type: cell-based; settings: for IC50: Homo sapiens, LPS 100 ng/ml, 6 h, read-out: Inhibition of TNFα production in human whole blood IC50; for Ratio IC50 WB/enzyme: whole blood TNFα IC50 / PI3-Kinase IC50
Protocol: Whole blood was taken by venous puncture using heparinised vacutainers (Becton Dickinson) and diluted in an equal volume of RPMI1640 tissue culture media. 100 μl was plated in V-bottomed 96 well tissue culture plates. Inhibitor was added in 100 μl of RPMI1640 media, and 2 h later the blood was stimulated with LPS (E coli strain 005:B5, Sigma) at a final concentration of 100 ng/ml and incubated at 37° C. in 5% CO2 for 6 h. TNF-α levels were measured from cell-free supernatants by sandwich ELISA (R&D Systems #QTA00B).

[2] = system: HDAC - Hela cell nuclear extract; experiment: Histone deacetylase inhibitory activity assay (Fluor de Lys); type: biochemical; settings: read-out: Enzyme inhibition IC50 nM (HDAC - Hela cell nuclear extract)
Protocol: The ability of compounds to inhibit histone deacetylase activities was measured using the commercially available HDAC fluorescent activity assay from Biomol. […] Histone deacetylase activity from crude nuclear extract derived from HeLa cells was used for screening. The preparation, purchased from 4C (Seneffe, Belgium), was prepared from HeLa cells harvested whilst in exponential growth phase. […] Acid. […] The final buffer composition was 20 mM Hepes, 100 mM KCl, 0.2 mM EDTA, 0.5 mM DTT, 0.2 mM PMSF and 20% (v/v) glycerol.

[3] = system: U937 cells (monocytic cell line); experiment: Cell proliferation inhibition assay (WST-1), U937; type: cell-based; settings: for IC50: Homo sapiens, U-937, read-out: Cell proliferation IC50 nM (U937 cells); for selectivity between a monocytic and non-monocytic cell line (cell proliferation): U937 versus HCT116
Protocol: (§1) Following 24 h of growth cells were treated with compound. Plates were then re-incubated for a further 72-96 h before a WST-1 cell viability assay was conducted according to the suppliers (Roche Applied Science) instructions.
(§2) Data were expressed as a percentage inhibition of the control, measured in the absence of inhibitor, as follows: —
(§3) where S^i is the signal in the presence of inhibitor and S^o is the signal in the presence of DMSO.
(§4) Dose response curves were generated from 8 concentrations (top final concentration 10 μM, with 3-fold dilutions), using 6 replicates.

[4] = system: HCT116 (non-monocytic cell line); experiment: Cell proliferation inhibition assay (WST-1), HCT116; type: cell-based; settings: for Ratio IC50 cell/enzyme: HCT116 cell proliferation IC50 / DHFR enzyme IC50; for IC50: Homo sapiens, HCT-116, HCT116 non-monocytic cell line, read-out: Cell proliferation IC50 nM (HCT116)
Protocol: as §1, §2, §3, §4

[5] = system: carboxylesterase (U937 cell extract); experiment: Broken cell carboxylesterase assay, U937 cell extract; type: in vitro ADME; settings: U937 versus HCT116
Protocol: U937 or HCT 116 tumour cells (˜10^9) were washed in 4 volumes of Dulbeccos PBS (˜1 litre) and pelleted at 525 g for 10 min at 4° C. This was repeated twice and the final cell pellet was resuspended in 35 ml of cold homogenising buffer (Trizma 10 mM, NaCl 130 mM, CaCl2 0.5 mM pH 7.0 at 25° C.). Homogenates were prepared by nitrogen cavitation (700 psi for 50 min at 4° C.). The homogenate was kept on ice and supplemented with a cocktail of inhibitors at final concentrations of: • Leupeptin 1 μM • Aprotinin 0.1 μM • E64 8 μM • Pepstatin 1.5 μM • Bestatin 162 μM • Chymostatin 33 μM
After clarification of the cell homogenate by centrifugation at 525 g for 10 min, the resulting supernatant was used as a source of esterase activity and was stored at −80° C. until required.
Hydrolysis of esters to the corresponding carboxylic acids can be measured using the cell extract, prepared as above. To this effect cell extract (˜30 μg/total assay volume of 0.5 ml) was incubated at 37° C. in a Tris-HCl 25 mM, 125 mM NaCl buffer, pH 7.5 at 25° C. At zero time the ester (substrate) was then added at a final concentration of 2.5 μM and the samples were incubated at 37° C. for the appropriate time (usually 0 or 80 min). […] After centrifugation at 12000 g for 5 min, samples were analysed for the ester and its corresponding carboxylic acid at room temperature by LCMS (Sciex API 3000, HP1100 binary pump, CTC PAL). […]

[6] = U937 cell proliferation IC50 / DHFR enzyme IC50

Structure (SMILES): O=C(CCCCCCC(=O)Nc1cccc(CN[C@H](C(=O)OC2CCCC2)c2ccccc2)c1)NO [Compound 8, (S)-[3-(7-Hydroxycarbamoyl-heptanoylamino)-benzylamino]-phenyl-acetic acid cyclopentyl ester]
IC50 [2]: 100 nM | IC50 ([3]; U937 monocytic cell line): 50 nM | Ratio IC50 cell/enzyme ([3]; U937 cell proliferation IC50 / HDAC enzyme IC50): 0.5

Structure (SMILES): Cc1c(CNc2ccc(OCC[C@H](NC3CCCCC3)C(=O)OC3CCCC3)cc2)cnc2nc(N)nc(N)c12 [Compound 4, (S)-2-Cyclohexylamino-4-{4-[(2,4-diamino-5-methyl-pyrido[2,3-d]pyrimidin-6-ylmethyl)-amino]-phenoxy}-butyric acid cyclopentyl ester]
Ratio IC50 cell/enzyme [4]: 6.6 | IC50 [4]: 6900 nM | IC50 ([3]; U937 monocytic cell line): 310 nM | Ratio IC50 cell/enzyme [3, 6]: 0.3 | selectivity between a monocytic and non-monocytic cell line (cell proliferation) [3]: significantly more anti-proliferative in monocytic cell lines then non-monocytic cell lines | cleavage of ester in monocytic versus non-monocytic cell lines [5]: selective cleavage in monocytic but not non-monocytic cell lines

Structure (SMILES): Cc1c(CNc2ccc(CN[C@@H](CC(C)C)C(=O)OC3CCCC3)cc2)cnc2nc(N)nc(N)c12 [Compound 5, (S)-2-{4-[(2,4-Diamino-5-methyl-pyrido[2,3-d]pyrimidin-6-ylmethyl)-amino]-benzylamino}-4-methyl-pentanoic acid cyclopentyl ester]
Ratio IC50 cell/enzyme [4]: 1.7 | IC50 [4]: 6700 nM | IC50 ([3]; U937 monocytic cell line): 310 nM | Ratio IC50 cell/enzyme [3, 6]: 0.8 | selectivity between a monocytic and non-monocytic cell line (cell proliferation) [3]: significantly more anti-proliferative in monocytic cell lines then non-monocytic cell lines | cleavage of ester in monocytic versus non-monocytic cell lines [5]: selective cleavage in monocytic but not non-monocytic cell lines

Structure (SMILES): O=C(CCCCCCC(=O)Nc1cccc(CN[C@H](C(=O)O)c2ccccc2)c1)NO [Compound 9, (S)-[3-(7-Hydroxycarbamoyl-heptanoylamino)-benzylamino]-phenyl-acetic acid]
IC50 [2]: 70 nM | Cell proliferation IC50 nM (U937 cells) ([3]; U937 monocytic cell line): Inactive

Further lines, with some results ahead:

IC50 (PI 3-kinase γ): 500 nM | IC50 [1]: 8500 nM
Structure (SMILES): CC(=O)Nc1nc(C)c(-c2ccc(Cl)c(S(C)(=O)=O)c2)s1 [Compound 20, N-[5-(4-Chloro-3-methanesulfonyl-phenyl)-4-methyl-thiazol-2-yl]-acetamide, reference compound]
Ratio IC50 WB/enzyme [1]: 17

IC50 (PI 3-kinase γ): 2700 nM | IC50 [1]: 400 nM
Structure (SMILES): Cc1nc(NC(=O)CC[C@H](N)C(=O)OC2CCCC2)sc1-c1ccc(Cl)c(S(C)(=O)=O)c1 [Compound 21, (S)-2-Amino-4-[5-(4-chloro-3-methanesulfonyl-phenyl)-4-methyl-thiazol-2-ylcarbamoyl]-butyric acid cyclopentyl ester]
Ratio IC50 WB/enzyme [1]: 0.15

IC50 (PI 3-kinase γ): 7100 nM | IC50 [1]: 5200 nM
Structure (SMILES): Cc1nc(NC(=O)CC[C@H](N)C(=O)OC(C)(C)C)sc1-c1ccc(Cl)c(S(C)(=O)=O)c1 [Compound 23, (S)-2-Amino-4-[5-(4-chloro-3-methanesulfonyl-phenyl)-4-methyl-thiazol-2-ylcarbamoyl]-butyric acid tert-butyl ester]
Ratio IC50 WB/enzyme [1]: 0.75
